{"source": "patent US20120329879A1", "about": "“BETA-ADRENERGIC RECEPTOR AGONISTS AND USES THEREOF” (THE UNIVERSITY OF TENNESSEE RESEARCH FOUNDATION, priority 2010, published 2012)", "key": {"Rat Müller cells (rMC-1)": {"system": "Rat Müller cells (rMC-1)", "experiment": "TNFalpha and cleaved caspase 3 ELISA in Müller cells cultured in high glucose", "assay_type": "cell-based", "description": "(§1) Human retinal endothelial cells (HREC) were purchased from Cell Systems (Kirkland, Wash.) and grown in either basal (5 mM glucose) or growth (25 mM glucose) media. Both media is supplemented with 10% FBS and antibiotics. The day prior to experiments, cells are serum-starved for 18-24 hours. Rat Müller cells (rMC-1) were grown in DMEM medium with 5 mM glucose or 25 mM glucose. Media was supplemented with 10% FBS and antibiotics. Cells were serum starved prior to all experiments for 18-24 hours.\n(§2) Human retinal endothelial cells (HREC) and rat Muller cells (rMC-1) in both glucose conditions were treated with Compound 2 at doses of 10 nM, 50 nM, 100 nM, 1 μM, and 10 μM of Compound 2. Cells of each type were grown in medium containing L-glucose to control for changes in osmolarity. 10 μM isoproterenol was also used for each condition as a positive control. Müller cells were treated for 1 hour and 24 hours, while HREC were treated for 30 and 60 minutes.\n(§3) Following treatment, cells were collected into lysis buffer containing protease and phosphatase inhibitors. ELISA analyses for TNFalpha, cleaved caspase 3, and PKA were done according to manufacturers instructions. Data is compared against non-treated cells and cells at the various doses. A Kruskal-Wallis test is done, with a Dunn's test for secondary analyses. […] The dose that decreases TNFalpha and caspase 3 levels also increases PKA activity."}, "[1]": {"system": "Human retinal endothelial cells (HREC)", "experiment": "TNFalpha and cleaved caspase 3 ELISA in retinal endothelial cells cultured in high glucose", "assay_type": "cell-based", "description": "as §1, §2, §3"}, "[2]": {"experiment": "Body weight, blood glucose, blood pressure and intraocular pressure in streptozotocin diabetic rats on eye drop therapy", "assay_type": "in vivo, rat", "conditions": "rats, 50 mM topical dose of isoproterenol", "protocol": "Male Lewis rats purchased from Charles River were used. Diabetic rats received a single injection of 60 mg/kg streptozotocin (Fisher, Pittsburgh, Pa.). […] All rats were weighed weekly and only rats with non-fasting blood glucose levels >250 mg/dl were considered diabetic. The designation of diabetic was made at the beginning of the experiments. Glucose was measured bimonthly. No insulin was administered to the rats at any time. To determine whether topical application of Compound 2 could reach the retina and elicit response, dose and time course studies were performed. For those studies, animals were made diabetic for 2 months using STZ. For 4 days, rats received a variety of doses of either Compound 2 (1 mM to 20 mM) or PBS once or twice each day. After the 4 days of eye drop treatment to both eyes, the diabetic and control animals were euthanized. […] After determining the optimal dose and time course for eye drop treatment for Compound 2, three groups of rats were used for this part of the study (control, diabetic (Diabetic), and diabetic+eye drop (Diab+2). Within 1 week of STZ-injection, 12 rats were put onto eye drop therapy. Rats on the eye drop therapy received a daily application of 4 drops of 1 mM Compound 2 to each eye. To verify that insulin levels were lost in the diabetic animals, insulin ELISA (Rat/Mouse Insulin ELISA kit, Linco, St. Charles, Mo.) was done on blood sampled from all rats at 2 months of age. Rats were sacrificed at 2 or 8 months of age. […] Analyses on the rats were done for acute changes (8 weeks of diabetes, 45 rats) and chronic changes (8 months of diabetes, 45 rats). […] Each month, all rats were tested for visual function: electroretinogram (ERG) and live retinal imaging were performed using Optical Coherence Topography (OCT). […] While the animals were asleep for ERG analyses, blood pressure and pulse were monitored to detect potential negative cardiovascular events."}, "retina": {"system": "retina", "conditions": "given systemically to rodents; cited from earlier work"}, "[3]": {"conditions": "Müller cells in high glucose, 50 nM, vs non-treated"}, "[4]": {"conditions": "REC in high glucose, 50 nM, vs non-treated"}, "[5]": {"conditions": "Müller cells, 10 μM isoproterenol"}}, "data": [{"smiles": "COc1cc(CCNC[C@H](O)c2ccc(O)c(O)c2)cc(OC)c1OC", "note": "[Compound 3, 4-[1-hydroxy-2-(1-ethylamino-3-,4-,5-trimethoxyphenyl)ethyl]benzene-1,2-diol]", "values": [{"measurement": "TNFalpha levels, in words", "setting": "Rat Müller cells (rMC-1); [3]", "result": "significantly reduced TNFalpha within 1 hour"}, {"measurement": "cleaved caspase 3 levels, in words", "setting": "Rat Müller cells (rMC-1); [3]", "result": "reduced the cleavage of caspase 3"}, {"measurement": "TNFalpha levels, in words", "setting": "[1]; [4]", "result": "reduced"}, {"measurement": "cleaved caspase 3 levels, in words", "setting": "[1]; [4]", "result": "reduced the cleavage of caspase 3"}]}, {"smiles": "CC(C)NCC(O)c1ccc(O)c(O)c1", "note": "(centres unmarked) [isoproterenol, 4-[1-hydroxy-2-(isopropylamino)ethyl]benzene-1,2-diol, reference compound]", "values": [{"measurement": "concentration required for the same response (reduction of cleaved caspase 3 and TNFalpha)", "setting": "Rat Müller cells (rMC-1); Müller cells in high glucose, compared with 50 nM Compound 2", "result": 10, "unit": "µM"}, {"measurement": "cleaved caspase 3 levels, in words", "setting": "Rat Müller cells (rMC-1); Müller cells in hyperglycemic conditions, isoproterenol, concentration not given", "result": "can decrease cleaved caspase 3 levels"}, {"measurement": "time for blockade of apoptosis", "setting": "Rat Müller cells (rMC-1); [5]", "result": 24, "unit": "h"}, {"measurement": "time for inhibition of TNFalpha activity", "setting": "Rat Müller cells (rMC-1); [5]", "result": "≤ 1", "unit": "h"}, {"measurement": "cleaved caspase 3 levels, in words", "setting": "[1]; REC in hyperglycemic conditions, isoproterenol, concentration not given", "result": "can decrease cleaved caspase 3 levels"}, {"measurement": "TNFalpha reduction, in words", "setting": "[1]; retinal endothelial cells, 10 μM in vitro", "result": "did not significantly reduce TNFalpha"}, {"measurement": "negative cardiovascular events (blood pressure and pulse)", "setting": "[2]", "result": "these events have not been observed"}]}, {"smiles": "CC(C)NCC(O)COc1cccc2ccccc12", "note": "(centres unmarked) [propranolol]", "values": [{"measurement": "electrical activity in the retina", "setting": "retina", "result": "produced significant deficits in the electrical activity in the retina"}, {"measurement": "growth factors that may promote neovascularization", "setting": "retina", "result": "activated growth factors that may promote neovascularization"}]}, {"smiles": "COc1cc(CCNC[C@H](O)c2cc(O)cc(O)c2)cc(OC)c1OC.Cl", "note": "[Compound 4, 5-(1-hydroxy-2-[2-(3,4,5-trimethosy-phenyl)-ethylamino]-ethyl)-benzene-1,3-diol hydrochloride]", "values": [{"measurement": "beta-2-adrenergic receptor activity (ELISA data)", "setting": "Rat Müller cells (rMC-1); Muller cells, 50 nM", "result": "has more beta-2-adrenergic receptor activity"}, {"measurement": "effectiveness and speed compared with Compound 2", "setting": "Rat Müller cells (rMC-1); Muller cells, 50 nM", "result": "more effective and works faster than Compound 2"}, {"measurement": "TNFalpha levels, in words", "setting": "Rat Müller cells (rMC-1); [3]", "result": "reduce TNFalpha levels"}, {"measurement": "cleaved caspase 3 levels, in words", "setting": "Rat Müller cells (rMC-1); [3]", "result": "reduce TNFalpha levels and the cleavage of caspase 3"}, {"measurement": "beta-2-adrenergic receptor activity (ELISA data)", "setting": "[1]; REC cells, 50 nM", "result": "has more beta-2-adrenergic receptor activity"}, {"measurement": "TNFalpha levels, in words", "setting": "[1]; [4]", "result": "reduce TNFalpha levels"}, {"measurement": "cleaved caspase 3 levels, in words", "setting": "[1]; [4]", "result": "reduce TNFalpha levels and the cleavage of caspase 3"}, {"measurement": "time to activate response compared with Compound 2", "setting": "[1]; retinal endothelial cells, 50 nM", "result": "does take longer to activate response"}]}, {"smiles": "COc1cc(CCNC[C@H](O)c2ccc(O)c(O)c2)cc(OC)c1OC.Cl", "note": "(single isomer, unassigned) [R-isomer of Compound 2]", "values": [{"measurement": "TNFalpha concentration and cleaved caspase 3: comparison of isomers", "setting": "Rat Müller cells (rMC-1); Muller cells, 50 nM, 1 hour or 24 hours", "result": "superior to the S-isomer of Compound 2 and racemic Compound 2"}, {"measurement": "TNFalpha concentration and cleaved caspase 3: comparison of isomers", "setting": "[1]; retinal endothelial cells, 50 nM, 1 hour or 24 hours", "result": "superior to the S-isomer of Compound 2 and racemic Compound 2"}]}]}
